Measurements published in US8436012B2, “Imidazopyridin-2-one derivatives” (Daiichi Sankyo Company, Limited, priority 2008, dated 2013).

Columns and labels:
human mTOR = target: T1, human mTOR (Homo sapiens, UniProt P42345); experiment: mTOR Kinase Activity Inhibition Test; type: biochemical; settings: His-tagged mTOR (1362C), biotinylated peptide substrate, ATP, 3 hours at room temperature, fluorescence resonance energy transfer 665 nm/620 nm; read-out: IC50 value of mTOR enzyme inhibitory activity
T1 construct: the portion corresponding to 1362-2549aa at the C terminus of human mTOR; made in house
T1 sequence (P42345 1362-2549): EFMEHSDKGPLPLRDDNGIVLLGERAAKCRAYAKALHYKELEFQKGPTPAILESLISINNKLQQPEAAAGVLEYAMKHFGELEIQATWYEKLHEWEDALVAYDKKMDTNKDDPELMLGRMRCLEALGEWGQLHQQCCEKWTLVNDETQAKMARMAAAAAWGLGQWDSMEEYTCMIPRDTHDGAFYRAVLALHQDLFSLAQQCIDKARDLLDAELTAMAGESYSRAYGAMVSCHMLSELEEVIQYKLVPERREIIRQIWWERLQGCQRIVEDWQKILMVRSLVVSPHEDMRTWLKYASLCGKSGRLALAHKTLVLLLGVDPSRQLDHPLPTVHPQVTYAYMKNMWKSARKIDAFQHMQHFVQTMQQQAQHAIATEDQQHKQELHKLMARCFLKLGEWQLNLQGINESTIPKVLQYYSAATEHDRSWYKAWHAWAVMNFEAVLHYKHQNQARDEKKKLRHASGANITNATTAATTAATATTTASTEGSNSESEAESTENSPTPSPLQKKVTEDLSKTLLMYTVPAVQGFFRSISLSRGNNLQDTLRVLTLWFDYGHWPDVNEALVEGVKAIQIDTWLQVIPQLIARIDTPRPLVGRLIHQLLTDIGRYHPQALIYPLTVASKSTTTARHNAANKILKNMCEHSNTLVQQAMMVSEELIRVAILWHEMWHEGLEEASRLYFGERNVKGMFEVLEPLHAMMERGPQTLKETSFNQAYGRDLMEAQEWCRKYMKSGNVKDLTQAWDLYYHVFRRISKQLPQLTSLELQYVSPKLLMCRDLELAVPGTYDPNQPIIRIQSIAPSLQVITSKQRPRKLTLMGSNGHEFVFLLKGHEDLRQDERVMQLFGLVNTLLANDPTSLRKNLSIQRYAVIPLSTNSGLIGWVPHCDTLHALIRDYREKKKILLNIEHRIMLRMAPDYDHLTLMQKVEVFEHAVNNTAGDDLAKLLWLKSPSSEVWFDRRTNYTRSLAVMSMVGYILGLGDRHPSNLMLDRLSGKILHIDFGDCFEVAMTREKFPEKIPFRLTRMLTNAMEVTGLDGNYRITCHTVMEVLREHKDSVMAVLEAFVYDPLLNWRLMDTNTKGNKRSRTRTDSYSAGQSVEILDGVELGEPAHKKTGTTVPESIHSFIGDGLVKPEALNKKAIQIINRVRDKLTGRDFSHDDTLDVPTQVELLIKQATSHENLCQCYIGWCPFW
Summary of the method: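 Purified His-tagged human mTOR (1362–2549aa, from HEK293) was used with biotinylated peptide (8 μg/mL in enzyme solution) in HEPES pH 7.5 with 20 mM MnCl2. Compounds were diluted in 20 μM ATP solution, and the reaction ran 3 h at RT. Phospho-S6K(Thr389) HTRF was read as the 665/620 nm ratio, and IC50 came from % inhibition versus controls.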

WM-266-4 cells = experiment: Cell Proliferation Inhibitory Test; type: cell-based; settings: Homo sapiens, 72 h, cultured three days with test compound, MTT, read-out: 50% cell proliferation inhibitory activity (GI50 value)
Summary of the method: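 Cells cultured overnight, then exposed to serially diluted compound for three days; cell amount read by MTT. GI50 solved from 100×[(T−T0)/(C−T0)]=50, with T0 the value at time of compound addition and C the untreated three-day control.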

Row | IC50 (human mTOR) | SMILES | GI50 (WM-266-4 cells)
1 | 100 to 5000 nM | CN(C)c1c(-c2cnc3[nH]c(=O)n(C[C@H]4COCCO4)c3c2)cnc2[nH]ccc12 [Example 131, 6-[4-(Dimethylamino)-1H-pyrrolo[2,3-b]pyridin-5-yl]-1-[(2S)-1,4-dioxan-2-ylmethyl]-1,3-dihydro-2H-imidazo[4,5-b]pyridin-2-one] | 3000 to 25000 nM
2 | 100 to 5000 nM | CN(CCO)c1c(-c2cnc3[nH]c(=O)n(C[C@H]4COCCO4)c3c2)cnc2[nH]ccc12 [Example 132, 1-[(2S)-1,4-Dioxan-2-ylmethyl]-6-{4-[(2-hydroxyethyl)(methyl)amino]-1H-pyrrolo[2,3-b]pyridin-5-yl}-1,3-dihydro-2H-imidazo[4,5-b]pyridin-2-one] | 3000 to 25000 nM
3 | < 50 nM | COc1c(-c2cnc3[nH]c(=O)n(C[C@H]4COCCO4)c3c2)cnc2[nH]ccc12 [Example 133, 1-[(2S)-1,4-Dioxan-2-ylmethyl]-6-(4-methoxy-1H-pyrrolo[2,3-b]pyridin-5-yl)-1,3-dihydro-2H-imidazo[4,5-b]pyridin-2-one] | < 3000 nM
4 | < 50 nM | COc1c[nH]c2ncc(-c3cnc4[nH]c(=O)n(C[C@H]5COCCO5)c4c3)cc12 [Example 134, 1-[(2S)-1,4-Dioxan-2-ylmethyl]-6-(3-methoxy-1H-pyrrolo[2,3-b]pyridin-5-yl)-1,3-dihydro-2H-imidazo[4,5-b]pyridin-2-one] | < 3000 nM
5 | < 50 nM | CO[C@H]1CC[C@@H](Cn2c(=O)[nH]c3ncc(-c4cnc5[nH]ccc5c4)cc32)OC1 [Example 135, 2,6-Anhydro-1,3,4-trideoxy-5-O-methyl-1-[2-oxo-6-(1H-pyrrolo[2,3-b]pyridin-5-yl)-2,3-dihydro-1H-imidazo[4,5-b]pyridin-1-yl]-D-threo-hexitol] | < 3000 nM
6 | < 50 nM | CO[C@@H]1CC[C@H](Cn2c(=O)[nH]c3ncc(-c4cnc5[nH]ccc5c4)cc32)OC1 [Example 136, 2,6-Anhydro-1,3,4-trideoxy-5-O-methyl-1-[2-oxo-6-(1H-pyrrolo[2,3-b]pyridin-5-yl)-2,3-dihydro-1H-imidazo[4,5-b]pyridin-1-yl]-L-threo-hexitol] | < 3000 nM
7 | < 50 nM | CO[C@H]1CCO[C@@H](Cn2c(=O)[nH]c3ncc(-c4cnc5[nH]ccc5c4)cc32)C1 [Example 137, 2,6-Anhydro-1,3,5-trideoxy-4-O-methyl-1-[2-oxo-6-(1H-pyrrolo[2,3-b]pyridin-5-yl)-2,3-dihydro-1H-imidazo[4,5-b]pyridin-1-yl]-L-threo-hexitol] | < 3000 nM
8 | < 50 nM | CO[C@@H]1CCO[C@H](Cn2c(=O)[nH]c3ncc(-c4cnc5[nH]ccc5c4)cc32)C1 [Example 138, 2,6-Anhydro-1,3,5-trideoxy-4-O-methyl-1-[2-oxo-6-(1H-pyrrolo[2,3-b]pyridin-5-yl)-2,3-dihydro-1H-imidazo[4,5-b]pyridin-1-yl]-D-threo-hexitol] | < 3000 nM
9 | < 50 nM | CO[C@H]1CCO[C@@H](Cn2c(=O)[nH]c3ncc(-c4cnc5[nH]ccc5c4C)cc32)C1 [Example 139, 2,6-Anhydro-1,3,5-trideoxy-4-O-methyl-1-[6-(4-methyl-1H-pyrrolo[2,3-b]pyridin-5-yl)-2-oxo-2,3-dihydro-1H-imidazo[4,5-b]pyridin-1-yl]-L-threo-hexitol] | < 3000 nM
10 | < 50 nM | CO[C@@H]1CCO[C@H](Cn2c(=O)[nH]c3ncc(-c4cnc5[nH]ccc5c4C)cc32)C1 [Example 140, 2,6-Anhydro-1,3,5-trideoxy-4-O-methyl-1-[6-(4-methyl-1H-pyrrolo[2,3-b]pyridin-5-yl)-2-oxo-2,3-dihydro-1H-imidazo[4,5-b]pyridin-1-yl]-D-threo-hexitol] | < 3000 nM
11 | < 50 nM | Cc1c(-c2cnc3[nH]c(=O)n(C[C@H]4CC[C@@H](O)CO4)c3c2)cnc2[nH]ccc12 [Example 143, 2,6-Anhydro-1,3,4-trideoxy-1-[6-(4-methyl-1H-pyrrolo[2,3-b]pyridin-5-yl)-2-oxo-2,3-dihydro-1H-imidazo[4,5-b]pyridin-1-yl]-L-threo-hexitol] | < 3000 nM
12 | < 50 nM | Cc1c[nH]c2ncc(-c3cnc4[nH]c(=O)n(C[C@H]5CC[C@@H](O)CO5)c4c3)c(C)c12 [Example 144, 2,6-Anhydro-1,3,4-trideoxy-1-[6-(3,4-dimethyl-1H-pyrrolo[2,3-b]pyridin-5-yl)-2-oxo-2,3-dihydro-1H-imidazo[4,5-b]pyridin-1-yl]-L-threo-hexitol] | < 3000 nM
13 | < 50 nM | Cc1c(-c2cnc3[nH]c(=O)n(C[C@H]4CC[C@@H](O)CO4)c3c2)cnc2[nH]cc(Cl)c12 [Example 145, 2,6-Anhydro-1-[6-(3-chloro-4-methyl-1H-pyrrolo[2,3-b]pyridin-5-yl)-2-oxo-2,3-dihydro-1H-imidazo[4,5-b]pyridin-1-yl]-1,3,4-trideoxy-L-threo-hexitol] | < 3000 nM
14 | < 50 nM | CO[C@@H]1CC[C@H](Cn2c(=O)[nH]c3ncc(-c4cnc5[nH]ccc5c4C)cc32)OC1 [Example 146, 2,6-Anhydro-1,3,4-trideoxy-5-O-methyl-1-[6-(4-methyl-1H-pyrrolo[2,3-b]pyridin-5-yl)-2-oxo-2,3-dihydro-1H-imidazo[4,5-b]pyridin-1-yl]-L-threo-hexitol] | < 3000 nM
15 | < 50 nM | CO[C@@H]1CC[C@H](Cn2c(=O)[nH]c3ncc(-c4cnc5[nH]cc(C)c5c4C)cc32)OC1 [Example 147, 2,6-Anhydro-1,3,4-trideoxy-1-[6-(3,4-dimethyl-1H-pyrrolo[2,3-b]pyridin-5-yl)-2-oxo-2,3-dihydro-1H-imidazo[4,5-b]pyridin-1-yl]-5-O-methyl-L-threo-hexitol] | < 3000 nM
16 | < 50 nM | CO[C@@H]1CC[C@H](Cn2c(=O)[nH]c3ncc(-c4cnc5[nH]cc(Cl)c5c4C)cc32)OC1 [Example 148, 2,6-Anhydro-1-[6-(3-chloro-4-methyl-1H-pyrrolo[2,3-b]pyridin-5-yl)-2-oxo-2,3-dihydro-1H-imidazo[4,5-b]pyridin-1-yl]-1,3,4-trideoxy-5-O-methyl-L-threo-hexitol] | < 3000 nM
17 | < 50 nM | Cc1nc2[nH]c(=O)n(C[C@H]3CC[C@@H](O)CO3)c2cc1-c1cnc2[nH]ccc2c1 [Example 149, 2,6-Anhydro-1,3,4-trideoxy-1-[5-methyl-2-oxo-6-(1H-pyrrolo[2,3-b]pyridin-5-yl)-2,3-dihydro-1H-imidazo[4,5-b]pyridin-1-yl]-L-threo-hexitol] | < 3000 nM
18 | < 50 nM | Cc1c[nH]c2ncc(-c3cnc4[nH]c(=O)n(C[C@H]5C[C@@H](O)CCO5)c4c3)c(C)c12 [Example 150, 2,6-Anhydro-1,3,5-trideoxy-1-[6-(3,4-dimethyl-1H-pyrrolo[2,3-b]pyridin-5-yl)-2-oxo-2,3-dihydro-1H-imidazo[4,5-b]pyridin-1-yl]-L-threo-hexitol] | < 3000 nM
19 | < 50 nM | CO[C@H]1CCO[C@@H](Cn2c(=O)[nH]c3ncc(-c4cnc5[nH]cc(C)c5c4C)cc32)C1 [Example 151, 2,6-Anhydro-1,3,5-trideoxy-1-[6-(3,4-dimethyl-1H-pyrrolo[2,3-b]pyridin-5-yl)-2-oxo-2,3-dihydro-1H-imidazo[4,5-b]pyridin-1-yl]-4-O-methyl-L-threo-hexitol] | < 3000 nM
20 | < 50 nM | CO[C@H]1CCO[C@@H](Cn2c(=O)[nH]c3ncc(-c4cnc5[nH]cc(Cl)c5c4C)cc32)C1 [Example 152, 2,6-Anhydro-1-[6-(3-chloro-4-methyl-1H-pyrrolo[2,3-b]pyridin-5-yl)-2-oxo-2,3-dihydro-1H-imidazo[4,5-b]pyridin-1-yl]-1,3,5-trideoxy-4-O-methyl-L-threo-hexitol] | < 3000 nM
21 | < 50 nM | COCC1COC[C@H](Cn2c(=O)[nH]c3ncc(-c4cnc5[nH]ccc5c4C)cc32)O1 (stereo partly drawn) [Example 153, 1-{[(2S)-6-(Methoxymethyl)-1,4-dioxan-2-yl]methyl}-6-(4-methyl-1H-pyrrolo[2,3-b]pyridin-5-yl)-1,3-dihydro-2H-imidazo[4,5-b]pyridin-2-one] | < 3000 nM
22 | < 50 nM | O=c1[nH]c2nc(Cl)c(-c3cnc4[nH]ccc4c3)cc2n1C[C@H]1COCCO1 [Example 155, 5-Chloro-1-[(2S)-1,4-dioxan-2-ylmethyl]-6-(1H-pyrrolo[2,3-b]pyridin-5-yl)-1,3-dihydro-2H-imidazo[4,5-b]pyridin-2-one] | < 3000 nM
